Calls of active or inactive are those of the source. The calls are words filed in the database; no cut-off is given here.
What was measured:
Mus musculus [1] = experiment: Neuroprotective activity against Eif 2bS R191H […] mouse model assessed as reduction in Atf3 level in brain at 50 mg/kg, po administered for 2 days; assay type: functional, organism-based; conditions: time 2.0 day
[2] = molecular target: Voltage-gated inwardly rectifying potassium channel KCNH2 (Homo sapiens, UniProt Q12809); experiment: Inhibition of hERG manual patch clamp assay; assay type: toxicity
Sequence of Voltage-gated inwardly rectifying potassium channel KCNH2 (Q12809 whole entry): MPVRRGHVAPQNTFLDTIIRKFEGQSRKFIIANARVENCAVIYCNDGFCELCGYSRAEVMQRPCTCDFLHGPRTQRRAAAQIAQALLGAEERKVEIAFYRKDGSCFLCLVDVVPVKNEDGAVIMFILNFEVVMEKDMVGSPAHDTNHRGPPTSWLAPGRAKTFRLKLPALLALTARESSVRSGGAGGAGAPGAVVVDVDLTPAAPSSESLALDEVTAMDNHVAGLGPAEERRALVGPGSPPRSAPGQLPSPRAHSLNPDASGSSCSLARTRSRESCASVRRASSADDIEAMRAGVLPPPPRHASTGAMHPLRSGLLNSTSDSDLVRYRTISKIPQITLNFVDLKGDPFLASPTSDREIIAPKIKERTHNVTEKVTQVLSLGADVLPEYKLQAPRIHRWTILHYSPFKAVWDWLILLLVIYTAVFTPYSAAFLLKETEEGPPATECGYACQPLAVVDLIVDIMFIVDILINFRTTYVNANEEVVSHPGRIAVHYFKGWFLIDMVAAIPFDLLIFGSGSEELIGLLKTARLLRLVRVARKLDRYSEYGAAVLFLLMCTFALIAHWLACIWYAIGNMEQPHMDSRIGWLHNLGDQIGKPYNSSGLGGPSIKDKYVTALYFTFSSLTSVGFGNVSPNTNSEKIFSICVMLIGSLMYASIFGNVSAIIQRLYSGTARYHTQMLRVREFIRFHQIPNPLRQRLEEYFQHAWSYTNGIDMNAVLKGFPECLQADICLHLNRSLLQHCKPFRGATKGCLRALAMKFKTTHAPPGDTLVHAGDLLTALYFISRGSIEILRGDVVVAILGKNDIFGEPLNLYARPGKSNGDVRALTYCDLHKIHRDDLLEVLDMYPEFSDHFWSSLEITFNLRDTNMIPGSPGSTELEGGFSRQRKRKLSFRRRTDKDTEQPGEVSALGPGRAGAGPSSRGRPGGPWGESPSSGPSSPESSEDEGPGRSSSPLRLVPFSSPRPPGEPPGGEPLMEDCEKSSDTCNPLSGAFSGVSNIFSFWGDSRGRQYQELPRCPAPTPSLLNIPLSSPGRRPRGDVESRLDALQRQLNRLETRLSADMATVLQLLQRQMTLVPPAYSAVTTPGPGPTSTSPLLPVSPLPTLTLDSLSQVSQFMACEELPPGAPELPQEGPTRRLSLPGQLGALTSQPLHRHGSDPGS

Mus musculus [3] = experiment: Neuroprotective activity against Eif 2bS R191H […] mouse model assessed as reduction in Ddit3 level in brain at 50 mg/kg, po administered for 2 days; assay type: functional, organism-based; conditions: time 2.0 day
[4] = Oral bioavailability in rat at 3 mg/kg; assay type: ADME, organism-based; conditions: in vivo
[5] = Volume of distribution at steady state in rat at 1 mg/kg, iv; assay type: ADME, organism-based; conditions: in vivo, read-out: Vdss
[6] = Metabolic stability in rat liver microsome assessed as hepatic clearance; assay type: ADME; conditions: liver microsomes
[7] = Clearance in rat at 1 mg/kg, iv; assay type: ADME, organism-based; conditions: in vivo
[8] = Oral bioavailability in cynomolgus monkey at 1 mg/kg; assay type: ADME, organism-based, Macaca fascicularis; conditions: in vivo
[9] = Ratio of unbound drug concentration in rat brain to plasma at 3 mg/kg, po; assay type: ADME, organism-based
[10] = Clearance in cynomolgus monkey at 0.5 mg/kg, iv; assay type: ADME, organism-based, Macaca fascicularis; conditions: in vivo
Mus musculus [11] = experiment: Neuroprotective activity against Eif 2bS R191H […] mouse model assessed as reduction in asns level in brain at 50 mg/kg, po administered for 2 days; assay type: functional, organism-based; conditions: time 2.0 day
[12] = Clearance in rat at 1 mg/kg, iv by LC-MS/MS analysis; assay type: ADME, organism-based; conditions: in vivo
[13] = molecular target: T1, Aryl hydrocarbon receptor (Homo sapiens, UniProt P35869); experiment: Activation of AHR (unknown origin)
T1 sequence (P35869 whole entry): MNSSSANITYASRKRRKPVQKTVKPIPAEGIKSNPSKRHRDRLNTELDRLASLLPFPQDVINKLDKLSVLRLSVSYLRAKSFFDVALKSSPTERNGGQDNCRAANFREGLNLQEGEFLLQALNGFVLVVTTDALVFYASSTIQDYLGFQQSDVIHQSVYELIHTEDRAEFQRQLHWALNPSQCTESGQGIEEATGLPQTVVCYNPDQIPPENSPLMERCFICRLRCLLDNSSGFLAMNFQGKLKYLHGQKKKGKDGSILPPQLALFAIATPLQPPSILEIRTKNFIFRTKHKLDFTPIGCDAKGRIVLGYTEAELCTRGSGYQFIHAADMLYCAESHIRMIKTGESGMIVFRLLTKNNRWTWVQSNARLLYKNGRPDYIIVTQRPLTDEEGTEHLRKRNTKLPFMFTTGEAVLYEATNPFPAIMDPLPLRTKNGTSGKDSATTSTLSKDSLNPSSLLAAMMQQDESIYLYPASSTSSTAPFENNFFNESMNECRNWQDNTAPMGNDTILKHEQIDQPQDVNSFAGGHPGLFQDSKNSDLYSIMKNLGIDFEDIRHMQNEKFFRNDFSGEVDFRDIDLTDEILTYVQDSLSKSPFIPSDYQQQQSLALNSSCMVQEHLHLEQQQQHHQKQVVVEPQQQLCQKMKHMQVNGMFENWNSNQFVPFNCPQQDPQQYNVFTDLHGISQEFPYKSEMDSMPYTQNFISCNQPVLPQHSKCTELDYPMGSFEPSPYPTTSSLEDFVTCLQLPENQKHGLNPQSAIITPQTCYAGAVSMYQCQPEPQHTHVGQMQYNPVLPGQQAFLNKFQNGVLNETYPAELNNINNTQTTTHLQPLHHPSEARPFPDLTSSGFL

H4 = experiment: Neuroprotective activity against NaAsO2-induced human H4 cells expressing GFP TDP43 (86 to 414 residues) assessed as decrease in TDP43 accumulation incubated for 2 hrs by DAPI staining based microscopic analysis; assay type: functional, cell-based; conditions: H4, 2 h
[14] = Volume of distribution at steady state in rat at 1 mg/kg, iv by LC-MS/MS analysis; assay type: ADME, organism-based; conditions: in vivo, read-out: Vdss
[15] = Oral bioavailability in rat at 3 mg/kg by LC-MS/MS analysis; assay type: ADME, organism-based; conditions: in vivo
Mus musculus [16] = experiment: Neuroprotective activity against Eif 2bS R191H […] mouse model assessed as reduction in Slc1a5 level in brain at 50 mg/kg, po administered for 2 days; assay type: functional, organism-based; conditions: time 2.0 day
[17] = Volume of distribution at steady state in dog at 0.5 mg/kg, iv; assay type: ADME, organism-based, Canis lupus familiaris; conditions: in vivo, read-out: Vdss
Mus musculus [18] = experiment: Neuroprotective activity against Eif 2bS R191H […] mouse model assessed as reduction in trib3 level in brain at 50 mg/kg, po administered for 2 days; assay type: functional, organism-based; conditions: time 2.0 day
[19] = Clearance in dog at 0.5 mg/kg, iv; assay type: ADME, organism-based, Canis lupus familiaris; conditions: in vivo
[20] = Metabolic stability in human liver microsome assessed as hepatic clearance; assay type: ADME; conditions: liver microsomes
Mus musculus [21] = experiment: Neuroprotective activity against Eif 2bS R191H […] mouse model assessed as reduction in Sic7a5 level in brain at 50 mg/kg, po administered for 2 days; assay type: functional, organism-based; conditions: time 2.0 day
[22] = Half life in cynomolgus monkey at 0.5 mg/kg, iv; assay type: ADME, organism-based, Macaca fascicularis; conditions: in vivo
Mus musculus [23] = experiment: Neuroprotective activity against Eif 2bS R191H […] mouse model assessed as reduction in Atf4 level in brain at 50 mg/kg, po administered for 2 days; assay type: functional, organism-based; conditions: time 2.0 day
Mus musculus [24] = experiment: Neuroprotective activity against Eif 2bS R191H […] mouse model assessed as reduction in ppp1r15a level in brain at 50 mg/kg, po administered for 2 days; assay type: functional, organism-based; conditions: time 2.0 day
[25] = Half life in dog at 0.5 mg/kg, iv; assay type: ADME, organism-based, Canis lupus familiaris; conditions: in vivo
[26] = Volume of distribution at steady state in cynomolgus monkey at 0.5 mg/kg, iv; assay type: ADME, organism-based, Macaca fascicularis; conditions: in vivo, read-out: Vdss
[27] = Ratio of unbound drug concentration in cynomolgus monkey brain to plasma at 0.5 mg/kg, po measured after 6 hrs; assay type: ADME, organism-based, Macaca fascicularis
Mus musculus [28] = experiment: Neuroprotective activity against Eif 2bS R191H […] mouse model assessed as reduction in Sensn2 level in brain at 50 mg/kg, po administered for 2 days; assay type: functional, organism-based; conditions: time 2.0 day
[29] = molecular target: T2, Nuclear receptor subfamily 1 group I member 2 (Homo sapiens, UniProt O75469); experiment: Activation of PXR (unknown origin)
T2 sequence (O75469 whole entry): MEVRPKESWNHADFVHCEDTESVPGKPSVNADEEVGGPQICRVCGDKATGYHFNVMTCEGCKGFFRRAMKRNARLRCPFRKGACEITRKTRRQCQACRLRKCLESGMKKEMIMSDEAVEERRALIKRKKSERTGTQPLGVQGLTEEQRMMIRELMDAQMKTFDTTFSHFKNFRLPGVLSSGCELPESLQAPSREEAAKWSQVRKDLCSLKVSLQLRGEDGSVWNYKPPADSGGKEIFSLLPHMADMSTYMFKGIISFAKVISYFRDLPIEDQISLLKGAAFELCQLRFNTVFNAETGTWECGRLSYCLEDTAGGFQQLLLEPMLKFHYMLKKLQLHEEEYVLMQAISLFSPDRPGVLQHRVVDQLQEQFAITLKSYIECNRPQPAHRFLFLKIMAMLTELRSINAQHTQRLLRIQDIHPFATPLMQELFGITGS

Mus musculus [30] = experiment: Neuroprotective activity against Eif 2bS R191H […] mouse model assessed as reduction in mthfd2 level in brain at 50 mg/kg, po administered for 2 days; assay type: functional, organism-based; conditions: time 2.0 day

**Q.** For `O=C(COc1ccc(Cl)cc1)NC12CC(c3nnc([C@H]4C[C@@H](OC(F)(F)F)C4)o3)(C1)C2` [EVETIFATOR], which Activity (Mus musculus [1]) is on record?
**A.** Active

**Q.** And the IC50 [2]?
**A.** 3000 nM

**Q.** And the Activity (Mus musculus [3])?
**A.** Active

**Q.** What about the bioavailability [4] of the same molecule?
**A.** 56%

**Q.** And the Vd [5]?
**A.** 0.31 L/kg

**Q.** What about the CLhep predicted [6] of the same molecule?
**A.** < 17 mL/min/kg

**Q.** And the clearance [7]?
**A.** 0.4 mL/min/kg

**Q.** And the bioavailability [8]?
**A.** > 99%

**Q.** And the “K(p,uu,brain)” value [9]?
**A.** 0.8

**Q.** What about the clearance [10] of the same molecule?
**A.** 2.9 mL/min/kg

**Q.** And the Activity (Mus musculus [11])?
**A.** Active

**Q.** And the clearance [12]?
**A.** 0.4 mL/min/kg

**Q.** What about the Activity [13] of the same molecule?
**A.** Not Active

**Q.** And the IC50 (H4)?
**A.** 12.5 nM

**Q.** And the Vd [14]?
**A.** 0.31 L/kg

**Q.** And the bioavailability [15]?
**A.** 65%

**Q.** What about the Activity (Mus musculus [16]) of the same molecule?
**A.** Active

**Q.** And the Vd [17]?
**A.** 2.7 L/kg

**Q.** What about the Activity (Mus musculus [18]) of the same molecule?
**A.** Active

**Q.** What about the clearance [19] of the same molecule?
**A.** 4.8 mL/min/kg

**Q.** And the CLhep predicted [20]?
**A.** < 6 mL/min/kg

**Q.** And the Activity (Mus musculus [21])?
**A.** Active

**Q.** And the half-life [22]?
**A.** 7.6 h

**Q.** What about the Activity (Mus musculus [23]) of the same molecule?
**A.** Active

**Q.** What about the Activity (Mus musculus [24]) of the same molecule?
**A.** Active

**Q.** What about the half-life [25] of the same molecule?
**A.** 7.4 h

**Q.** And the Vd [26]?
**A.** 1.9 L/kg

**Q.** And the “K(p,uu,brain)” value [27]?
**A.** 0.9

**Q.** What about the Activity (Mus musculus [28]) of the same molecule?
**A.** Active

**Q.** And the Activity [29]?
**A.** Not Active

**Q.** And the Activity (Mus musculus [30])?
**A.** Active
